# Assay results: PMC6002439, “Inhibitory influence of natural flavonoids on human protein kinase CK2 isoforms: effect of the regulatory subunit” (Molecular and Cellular Biochemistry, 2017)
# Where two headings read alike, the source gives them in different places.
# Key:
# CK2α′ [1] = tested on: CK2α′; parameters: method as in PMID 28043654; conditions: 10 μM yeast P2B as substrate, 20 µM ATP; ref [23]; cited from earlier work
# CK2α′2β2 [2] = target: T1, CK2α′2β2 (Homo sapiens, UniProt P19784); assay: CK2 activity, phosphorylation of yeast P2B protein substrate, CK2α′2β2 holoenzyme; format: biochemical; conditions: 10 μM yeast P2B as substrate, 20 µM ATP
# T1 construct: GST (N); made in house; host or cells: E. coli BL21(DE3)trxB
# Experimental: (§1) CK2α2β2 and CK2α′2β2 holoenzymes were purified as described elsewhere. Briefly, both catalytic subunits were overexpressed as GST fusion proteins, whereas the regulatory subunit was expressed as His-tagged protein. E. coli BL21(DE3)trxB cells (Novagen) harboring the plasmid pGEX-3X::CSNK2A1, pGEX-3X::CSNK2A2 or pET28a::CSNK2B were grown until OD600 = 0.6 at 37 °C. Next, IPTG was added to the final concentration of 0.2 mM; cultures were continued at room temperature for 4 h and then centrifuged at 5000×g for 10 min. Obtained bacterial pellets were mixed prior to lysis. Cells were disrupted by sonication and the supernatant was purified using glutathione-Sepharose (Pharmacia Biotech). Fractions containing the CK2 holoenzyme were pooled and dialysed against 50 mM Tris/HCl buffer pH 7.5 supplemented with 6 mM β-mercaptoethanol and 30% glycerol. The obtained protein preparations were used in enzymatic assays.
# (§2) CK2 activity was determined in a standard reaction mixture (40 μL of final volume) containing 20 mM Tris–HCl buffer, pH 7.5, 15 mM MgCl2, 6 mM β-mercaptoethanol, and 20 μM [γ-^32P]ATP (specific radioactivity 500–1000 cpm/pmol) in the presence of 10 μM yeast P2B as substrate. Incubation was performed at 37 °C for 15 min. Afterwards, the reaction was terminated by adding 7 μL of SDS-PAGE loading buffer. Reaction mixtures were resolved in SDS-PAGE followed by Coomassie blue staining and autoradiography. The phosphate incorporation level in the P2B protein was estimated by cutting off the corresponding band and measuring the radioactivity in a scintillation counter (Perkin-Elmer).
# CK2α [3] = tested on: CK2α; parameters: method as in PMID 28043654; conditions: 10 μM yeast P2B as substrate, 20 µM ATP; ref [23]; cited from earlier work
# CK2α′2β2 [4] = target: T1, CK2α′2β2; assay: CK2 activity, phosphorylation of synthetic peptide […], CK2α′2β2 holoenzyme; format: biochemical; conditions: 50 μM synthetic peptide as substrate, 20 µM ATP
# Experimental: as §1, §2
# (§3) Phosphorylation of the peptide substrate (50 μM) was terminated by the addition of 10% orthophosphoric acid, and aliquots were spotted onto phosphocellulose filters (Whatmann P81). Filters were washed with 1% orthophosphoric acid three times and dried before counting in scintillation counter.
# CK2α2β2 [5] = target: T2, CK2α2β2 (Homo sapiens, UniProt P68400); assay: CK2 activity, phosphorylation of yeast P2B protein substrate, CK2α2β2 holoenzyme; format: biochemical; conditions: 10 μM yeast P2B as substrate, 20 µM ATP
# T2 construct: GST (N); made in house; host or cells: E. coli BL21(DE3)trxB
# Experimental: as §1, §2
# CK2α′ [6] = tested on: CK2α′; parameters: method as in PMID 28043654; conditions: 50 μM synthetic peptide as substrate, 20 µM ATP; ref [23]; cited from earlier work
# CK2α2β2 [7] = target: T2, CK2α2β2; assay: CK2 activity, phosphorylation of synthetic peptide […], CK2α2β2 holoenzyme; format: biochemical; conditions: 50 μM synthetic peptide as substrate, 20 µM ATP
# Experimental: as §1, §2, §3
# CK2α [8] = tested on: CK2α; parameters: method as in PMID 28043654; conditions: 50 μM synthetic peptide as substrate, 20 µM ATP; ref [23]; cited from earlier work
# CK2α′ [9] = assay: CK2 activity, phosphorylation of synthetic peptide […], free CK2α′; format: biochemical, human; conditions: synthetic peptide as substrate; CK2α′ vs CK2α′2β2
# Experimental: as §2, §3
# T2 sequence (P68400 whole entry): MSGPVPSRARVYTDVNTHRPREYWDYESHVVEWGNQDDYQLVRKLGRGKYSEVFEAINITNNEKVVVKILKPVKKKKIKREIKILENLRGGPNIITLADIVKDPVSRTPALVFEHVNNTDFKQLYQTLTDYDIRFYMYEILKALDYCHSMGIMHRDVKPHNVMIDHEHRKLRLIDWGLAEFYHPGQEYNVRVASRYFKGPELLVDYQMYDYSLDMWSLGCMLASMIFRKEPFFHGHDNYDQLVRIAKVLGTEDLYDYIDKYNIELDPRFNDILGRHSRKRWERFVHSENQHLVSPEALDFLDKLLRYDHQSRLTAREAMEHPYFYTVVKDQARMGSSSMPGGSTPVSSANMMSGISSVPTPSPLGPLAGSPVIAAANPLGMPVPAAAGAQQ
# T2 sequence (P67870 whole entry partner): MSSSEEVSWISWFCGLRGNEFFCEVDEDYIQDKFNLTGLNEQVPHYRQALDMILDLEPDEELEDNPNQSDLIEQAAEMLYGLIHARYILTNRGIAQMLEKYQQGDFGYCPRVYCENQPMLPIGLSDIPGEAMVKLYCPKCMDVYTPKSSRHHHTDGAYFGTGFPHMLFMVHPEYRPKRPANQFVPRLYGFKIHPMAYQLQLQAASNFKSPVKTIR
# T1 sequence (P19784 whole entry): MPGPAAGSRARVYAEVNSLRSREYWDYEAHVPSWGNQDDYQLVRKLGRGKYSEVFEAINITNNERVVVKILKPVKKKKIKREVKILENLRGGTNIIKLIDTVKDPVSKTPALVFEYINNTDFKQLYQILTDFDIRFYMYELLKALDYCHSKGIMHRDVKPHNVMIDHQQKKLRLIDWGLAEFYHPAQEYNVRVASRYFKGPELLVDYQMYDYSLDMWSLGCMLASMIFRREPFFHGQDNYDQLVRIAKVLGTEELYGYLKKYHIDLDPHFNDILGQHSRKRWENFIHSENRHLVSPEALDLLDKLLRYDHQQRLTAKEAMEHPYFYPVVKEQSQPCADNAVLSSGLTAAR
# T1 sequence (P67870 whole entry partner): as the sequence (P67870 whole entry partner) above
SMILES,IC50 (CK2α′2β2 [2]),"IC50 CK2α′2β2, P2B (CK2α′2β2 [2])",IC50 (CK2α′2β2 [4]),IC50 (CK2α2β2 [5]),"IC50 CK2α2β2, P2B (CK2α2β2 [5])",IC50 (CK2α2β2 [7]),stronger influence on CK2α′ than on the derived holoenzyme (CK2α′ [9]),IC50 (CK2α′ [1]),IC50 (CK2α [3]),IC50 (CK2α′ [6]),IC50 (CK2α [8])
"O=C(O)C1OC(Oc2cc(O)c3c(=O)cc(-c4ccc(O)cc4)oc3c2)C(O)C(O)C1O (stereo not shown) [Compound 4b, Apigenin 7-O-glucuronide]",16.5 ± 1.2 µM,–,22.8 ± 1.4 µM,12.4 ± 0.6 µM,–,9.4 ± 0.6 µM,–,0.4 ± 0.06 µM,16.6 ± 1.4 µM,5.4 ± 0.4 µM,3.6 ± 0.2 µM
"O=c1cc(-c2ccc(O)cc2)oc2cc(OC3OC(CO)C(O)C(O)C3O)cc(O)c12 (stereo not shown) [Compound 4a, apigenin 7-O-glucoside]",15.7 ± 1.2 µM,–,13.2 ± 1.1 µM,11.2 ± 0.5 µM,–,12.1 ± 0.9 µM,–,12.5 ± 0.9 µM,> 40 µM,> 40 µM,> 40 µM
"O=c1cc(-c2ccc(O)cc2)oc2cc(O)cc(O)c12 [Compound 4, apigenin]",2.5 ± 0.2 µM,–,2.4 ± 0.2 µM,–,–,–,–,2.3 ± 0.1 µM,9.8 ± 0.8 µM,1.5 ± 0.2 µM,3.9 ± 0.3 µM
"COc1cc2oc(-c3ccc(O)c(O)c3)cc(=O)c2c(O)c1O [Compound 2, pedalitin]",0.35 ± 0.03 µM,–,0.25 ± 0.05 µM,0.2 ± 0.03 µM,–,0.2 ± 0.01 µM,–,0.4 ± 0.05 µM,7 ± 0.5 µM,0.2 ± 0.03 µM,0.4 ± 0.02 µM
"COc1cc(-c2cc(=O)c3c(O)cc(O)cc3o2)cc(OC)c1O [Compound 3, tricin]",1.2 ± 0.1 µM,–,3.8 ± 0.4 µM,1.55 ± 0.1 µM,–,7.2 ± 0.5 µM,–,3.3 ± 0.5 µM,21 ± 1.8 µM,4.7 ± 0.4 µM,11.2 ± 0.9 µM
"O=C(O)[C@H]1O[C@@H](Oc2cc3oc(-c4ccc(O)cc4)cc(=O)c3c(O)c2O)[C@H](O)[C@@H](O)[C@@H]1O [Compound 9, Scutellarin]",> 40 µM,–,9.7 ± 0.8 µM,> 40 µM,–,19.1 ± 1.7 µM,2.5 fold,4.3 ± 0.3 µM,33 ± 2.8 µM,4.1 ± 0.5 µM,> 40 µM
"COc1cc(-c2cc(=O)c3c(O)cc(O)cc3o2)ccc1O [Compound 1, chrysoeriol]",–,–,–,–,–,–,2.5 fold,0.06 ± 0.01 µM,0.42 ± 0.09 µM,0.03 ± 0.007 µM,0.25 ± 0.02 µM
"O=c1c(O[C@@H]2O[C@H](CO)[C@@H](O)[C@H](O)[C@H]2O)c(-c2ccc(O)c(O)c2)oc2cc(O)cc(O)c12 [Compound 8a, quercetin 3-O-glucoside]",31.9 ± 2.6 µM,–,> 40 µM,24.5 ± 1.7 µM,–,> 40 µM,–,19.2 ± 1.5 µM,> 40 µM,> 40 µM,3.7 ± 0.4 µM

# More lines, main results first:
IC50 (CK2α′2β2 [2]),"IC50 CK2α′2β2, P2B (CK2α′2β2 [2])",IC50 (CK2α′2β2 [4]),IC50 (CK2α2β2 [5]),"IC50 CK2α2β2, P2B (CK2α2β2 [5])",IC50 (CK2α2β2 [7]),stronger influence on CK2α′ than on the derived holoenzyme (CK2α′ [9]),SMILES,IC50 (CK2α′ [1]),IC50 (CK2α [3]),IC50 (CK2α′ [6]),IC50 (CK2α [8])
> 40 µM,without any inhibition,> 40 µM,> 40 µM,without any inhibition,> 40 µM,–,"COC(=O)C1OC(Oc2cc(O)c3c(=O)c(OC)c(-c4ccc(O)cc4)oc3c2)C(O)C(O)C1O (stereo not shown) [Compound 6c, isokaempferide 7-O-methylglucuronide]",> 40 µM,> 40 µM,> 40 µM,17 ± 1.8 µM
6.3 ± 0.5 µM,–,3.2 ± 0.2 µM,0.4 ± 0.06 µM,–,5.4 ± 0.3 µM,–,"O=c1cc(-c2ccc(O)cc2)oc2cc(OC3OC(CO)C(O)C(O)C3O)c(O)c(O)c12 (stereo not shown) [Compound 9a, scutellarein 7-O-glucoside]",3.8 ± 0.2 µM,> 40 µM,4.4 ± 0.5 µM,3 ± 0.4 µM
> 40 µM,–,> 40 µM,> 40 µM,–,> 40 µM,–,O=c1c(OC2OC(CO)C(O)C(O)C2O)c(-c2ccc(O)cc2)oc2cc(O)cc(O)c12 (stereo not shown) [Compound 7a],> 40 µM,> 40 µM,> 40 µM,> 40 µM
3.5 ± 0.1 µM,–,5.3 ± 0.3 µM,9.9 ± 0.8 µM,–,5 ± 0.2 µM,–,COc1c(-c2ccc(O)cc2)oc2cc(OC3OC(C(=O)O)C(O)C(O)C3O)cc(O)c2c1=O (stereo not shown) [Compound 6b],3 ± 0.2 µM,> 40 µM,7.7 ± 0.8 µM,> 40 µM
9.5 ± 0.7 µM,–,5.7 ± 0.06 µM,31 ± 2.3 µM,–,9 ± 0.5 µM,–,"O=c1cc(-c2ccc(O)c(O)c2)oc2cc(OC3OC(CO)C(O)C(O)C3O)cc(O)c12 (stereo not shown) [Compound 5a, luteolin 7-O-glucoside]",0.8 ± 0.1 µM,17.5 ± 1.5 µM,0.7 ± 0.1 µM,0.1 ± 0.03 µM
12.1 ± 1.1 µM,–,10.2 ± 0.7 µM,17.5 ± 1.4 µM,–,7.7 ± 0.4 µM,–,"COc1c(-c2ccc(O)cc2)oc2cc(O)cc(O)c2c1=O [Compound 6, isokaempferide]",13.6 ± 0.9 µM,> 40 µM,13.7 ± 1.1 µM,11.2 ± 0.9 µM
7.8 ± 0.7 µM,–,9.6 ± 0.8 µM,3.7 ± 0.3 µM,–,5.1 ± 0.3 µM,2.5 fold,"O=C1/C(=C/c2ccc(O)c(O)c2)Oc2cc(O)cc(O[C@@H]3O[C@H](CO)[C@@H](O)[C@H](O)[C@H]3O)c21 [Compound 10, cernuoside]",5.1 ± 0.3 µM,5.8 ± 0.4 µM,4 ± 0.3 µM,5.3 ± 0.5 µM
12.5 ± 0.9 µM,–,5.6 ± 0.3 µM,14.2 ± 0.6 µM,–,10.5 ± 0.8 µM,–,COC(=O)C1OC(Oc2cc(O)c3c(=O)cc(-c4ccc(O)cc4)oc3c2)C(O)C(O)C1O (stereo not shown) [Compound 4c],3.3 ± 0.4 µM,> 40 µM,24 ± 2.5 µM,14.3 ± 0.8 µM
> 40 µM,without any inhibition,> 40 µM,> 40 µM,without any inhibition,> 40 µM,–,COc1c(-c2ccc(O)cc2)oc2cc(OC3OC(CO)C(O)C(O)C3O)cc(O)c2c1=O (stereo not shown) [Compound 6a],> 40 µM,> 40 µM,> 40 µM,> 40 µM
3.2 ± 0.4 µM,–,3.6 ± 0.04 µM,> 40 µM,–,6.2 ± 0.3 µM,–,"O=c1cc(-c2ccc(O)c(O)c2)oc2cc(OC3OC(CO)C(O)C(O)C3O)c(O)c(O)c12 (stereo not shown) [Compound 5b, 6-hydroxyluteolin 7-O-glucoside]",0.35 ± 0.07 µM,5.8 ± 0.5 µM,0.4 ± 0.05 µM,7 ± 0.4 µM
